Patent US8618289B2 (Ambit Biosciences Corporation, priority 2008, dated 2013)
pEC50, pIC50, pKd: −log10 of the molar value. Counter-ions that a name gives are not always drawn.

Key:
RAF kinases [1] = molecular target: RAF kinases (Homo sapiens, UniProt P15056); experiment: biochemical
RAF kinases [2] = molecular target: RAF kinases (Homo sapiens, UniProt P04049); experiment: biochemical
A375 cells = experiment: cells; conditions: Homo sapiens, A-375, read-out: A375 Viability EC50
[3] = tested on: MEK1 phosphorylation in the A375 human melanoma cell line; experiment: cells; conditions: A-375, read-out: pMEK IC50

Chain of RAF kinases (Homo sapiens, UniProt P04049) (P04049 whole entry): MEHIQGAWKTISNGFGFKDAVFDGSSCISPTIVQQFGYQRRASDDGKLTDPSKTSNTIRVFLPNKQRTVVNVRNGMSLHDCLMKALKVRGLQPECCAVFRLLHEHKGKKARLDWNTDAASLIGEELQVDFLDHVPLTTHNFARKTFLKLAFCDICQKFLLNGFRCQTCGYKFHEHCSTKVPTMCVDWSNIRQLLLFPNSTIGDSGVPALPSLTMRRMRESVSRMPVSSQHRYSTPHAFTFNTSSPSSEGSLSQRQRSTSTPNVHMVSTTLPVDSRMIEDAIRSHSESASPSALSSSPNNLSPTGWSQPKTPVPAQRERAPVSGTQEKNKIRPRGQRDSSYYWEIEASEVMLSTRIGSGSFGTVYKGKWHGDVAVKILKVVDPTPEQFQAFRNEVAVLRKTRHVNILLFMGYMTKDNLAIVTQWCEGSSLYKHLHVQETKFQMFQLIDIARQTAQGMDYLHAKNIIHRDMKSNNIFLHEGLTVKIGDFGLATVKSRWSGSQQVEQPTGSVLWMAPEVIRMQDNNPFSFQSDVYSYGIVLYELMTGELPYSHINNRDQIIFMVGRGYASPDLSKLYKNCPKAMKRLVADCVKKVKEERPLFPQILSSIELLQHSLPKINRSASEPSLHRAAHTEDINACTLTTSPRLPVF
Chain of RAF kinases (Homo sapiens, UniProt P15056) (P15056 whole entry): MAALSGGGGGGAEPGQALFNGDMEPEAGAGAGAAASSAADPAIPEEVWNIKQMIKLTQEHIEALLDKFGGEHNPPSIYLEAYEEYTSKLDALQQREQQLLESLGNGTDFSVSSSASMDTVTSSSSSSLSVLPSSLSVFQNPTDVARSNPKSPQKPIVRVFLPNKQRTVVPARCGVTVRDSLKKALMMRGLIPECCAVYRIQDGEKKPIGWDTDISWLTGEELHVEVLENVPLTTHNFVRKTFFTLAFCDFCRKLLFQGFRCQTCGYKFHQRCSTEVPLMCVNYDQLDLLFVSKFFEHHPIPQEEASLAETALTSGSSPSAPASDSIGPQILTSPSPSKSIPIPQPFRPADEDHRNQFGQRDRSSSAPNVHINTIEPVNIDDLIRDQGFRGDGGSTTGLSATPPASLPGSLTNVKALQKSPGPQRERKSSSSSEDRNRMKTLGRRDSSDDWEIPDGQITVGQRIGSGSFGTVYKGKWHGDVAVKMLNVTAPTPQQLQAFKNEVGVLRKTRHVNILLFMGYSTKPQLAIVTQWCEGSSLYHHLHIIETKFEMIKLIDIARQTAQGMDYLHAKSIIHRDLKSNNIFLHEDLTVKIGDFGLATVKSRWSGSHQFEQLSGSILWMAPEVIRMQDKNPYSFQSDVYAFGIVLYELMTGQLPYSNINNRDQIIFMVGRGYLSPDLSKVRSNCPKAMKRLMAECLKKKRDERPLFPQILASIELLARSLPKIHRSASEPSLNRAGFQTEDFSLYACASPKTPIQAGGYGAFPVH

| Structure (SMILES) | pKd (RAF kinases [1]) | pKd (RAF kinases [2]) | pEC50 (A375 cells) | pIC50 [3] |
| --- | --- | --- | --- | --- |
| COc1cc2ncnc(Sc3cccc(NC(=O)Nc4cc(C(C)(C)C)on4)c3)c2cc1OC [Ex 46, 1-(5-tert-butylisoxazol-3-yl)-3-(3-(6,7-dimethoxyquinazolin-4-ylthio)phenyl)urea] | 6.00 to 6.30 | 6.30 to 6.60 | 6.30 to 6.60 | > 6.60 |
| COCCOc1cc2ncnc(Sc3cccc(NC(=O)Nc4cc(C(C)(C)C)on4)c3)c2cc1OC [Ex 52, 1-(5-tert-butylisoxazol-3-yl)-3-{3-[6-methoxy-7-(2-methoxyethoxy)quinazolin-4-ylthio]phenyl}urea hydrochloride] | 6.30 to 6.60 | 6.30 to 6.60 | 6.00 to 6.30 | > 6.60 |
| COCCOc1cc2ncnc(Sc3cccc(NC(=O)Nc4cc(C(C)(C)C)on4)c3)c2cc1OCCOC [Ex 53, 1-{3-[6,7-bis(2-methoxyethoxy)quinazolin-4-ylthio]phenyl}-3-(5-tert-butylisoxazol-3-yl)urea hydrochloride] | 6.00 to 6.30 | 6.30 to 6.60 | 6.00 to 6.30 | > 6.60 |
| CCOc1cc2c(Sc3cccc(NC(=O)Nc4cc(C(C)(C)C)on4)c3)ncnc2cc1OC [Ex 56, 1-(5-tert-butylisoxazol-3-yl)-3-(3-(6-ethoxy-7-methoxyquinazolin-4-ylthio)phenyl)urea] | 6.00 to 6.30 | 6.30 to 6.60 | > 6.60 | > 6.60 |
| COc1cc2ncnc(Sc3cccc(NC(=O)Nc4cc(C(C)(C)C)on4)c3)c2cc1OCCCN1CCCCC1 [Ex 57, 1-(5-tert-butylisoxazol-3-yl)-3-(3-(7-methoxy-6-(3-(piperidin-1-yl)propoxy)quinazolin-4-ylthio)phenyl) urea] | 6.00 to 6.30 | 6.00 to 6.30 | < 6.00 | > 6.60 |
| COc1cc2ncnc(Sc3cccc(NC(=O)Nc4cc(C(C)(C)C)on4)c3)c2cc1OCCCN1CCC(CO)CC1 [Ex 58, 1-(5-tert-butylisoxazol-3-yl)-3-(3-(6-(3-(4-(hydroxymethyl)piperidin-1-yl)propoxy)-7-methoxyquinazolin-4-ylthio)phenyl)urea] | 6.30 to 6.60 | 6.00 to 6.30 | < 6.00 | > 6.60 |
| COc1cc2ncnc(Sc3cccc(NC(=O)Nc4cc(C(C)(C)C)on4)c3)c2cc1OCCCN1CCN(C)CC1 [Ex 59, 1-(5-tert-butylisoxazol-3-yl)-3-(3-(7-methoxy-6-(3-(4-methylpiperazin-1-yl)propoxy)quinazolin-4-ylthio)phenyl)urea] | 6.30 to 6.60 | 6.30 to 6.60 | < 6.00 | > 6.60 |
| COc1cc2ncnc(Sc3cccc(NC(=O)Nc4cc(C(C)(C)C)on4)c3)c2cc1OCCCN1CCN(S(C)(=O)=O)CC1 [Ex 60, 1-(5-tert-butylisoxazol-3-yl)-3-(3-(7-methoxy-6-(3-(4-(methylsulfonyl)piperazin-1-yl)propoxy)quinazolin-4-ylthio)phenyl) urea] | 6.00 to 6.30 | 6.30 to 6.60 | 6.30 to 6.60 | > 6.60 |
| COc1cc2ncnc(Sc3cccc(NC(=O)Nc4cc(C(C)(C)C)on4)c3)c2cc1OCCN1CCC(CO)CC1 [Ex 66, 1-(5-tert-butylisoxazol-3-yl)-3-(3-(6-(2-(4-(hydroxymethyl)piperidin-1-yl)ethoxy)-7-methoxyquinazolin-4-ylthio)phenyl)urea] | 6.00 to 6.30 | 6.00 to 6.30 | < 6.00 | > 6.60 |
| COc1cc2ncnc(Sc3cccc(NC(=O)Nc4cc(C(C)(C)C)on4)c3)c2cc1OCCN1CCN(C)CC1 [Ex 67, 1-(5-tert-butylisoxazol-3-yl)-3-(3-(7-methoxy-6-(2-(4-methylpiperazin-1-yl)ethoxy)quinazolin-4-ylthio)phenyl)urea] | 6.30 to 6.60 | 6.30 to 6.60 | < 6.00 | > 6.60 |
| COc1cc2ncnc(Sc3cccc(NC(=O)Nc4cc(C(C)(C)C)on4)c3)c2cc1OCCN1CCN(CCO)CC1 [Ex 68, 1-(5-tert-butylisoxazol-3-yl)-3-(3-(6-(2-(4-(2-hydroxyethyl)piperazin-1-yl)ethoxy)-7-methoxyquinazolin-4-ylthio)phenyl)urea] | 6.30 to 6.60 | 6.30 to 6.60 | 6.00 to 6.30 | > 6.60 |
| COc1cc2ncnc(Sc3cccc(NC(=O)Nc4cc(C(C)(C)C)on4)c3)c2cc1OCCN1CCN(S(C)(=O)=O)CC1 [Ex 69, 1-(5-tert-butylisoxazol-3-yl)-3-(3-(7-methoxy-6-(2-(4-(methylsulfonyl)piperazin-1-yl)ethoxy)quinazolin-4-ylthio)phenyl)urea] | 6.30 to 6.60 | 6.30 to 6.60 | 6.30 to 6.60 | > 6.60 |
| COc1cc2c(Sc3cccc(NC(=O)Nc4cc(C(C)(C)C)on4)c3)ncnc2cc1OCCCN1CCN(C)CC1 [Ex 73, 1-(5-tert-butylisoxazol-3-yl)-3-(3-(6-methoxy-7-(3-(4-methylpiperazin-1-yl)propoxy)quinazolin-4-ylthio)phenyl)urea] | 6.30 to 6.60 | 6.30 to 6.60 | 6.00 to 6.30 | > 6.60 |
| COc1cc2c(Sc3cccc(NC(=O)Nc4cc(C(C)(C)C)on4)c3)ncnc2cc1OCCCN1CCN(CCO)CC1 [Ex 75, 1-(5-tert-butylisoxazol-3-yl)-3-(3-(7-(3-(4-(2-hydroxyethyl)piperazin-1-yl)propoxy)-6-methoxyquinazolin-4-ylthio)phenyl)urea] | 6.30 to 6.60 | 6.30 to 6.60 | < 6.00 | > 6.60 |
| COc1cc2c(Sc3cccc(NC(=O)Nc4cc(C(C)(C)C)on4)c3)ncnc2cc1OCCCN1CCCCC1 [Ex 76, 1-(5-tert-butylisoxazol-3-yl)-3-(3-(6-methoxy-7-(3-(piperidin-1-yl)propoxy)quinazolin-4-ylthio)phenyl)urea] | 6.30 to 6.60 | 6.00 to 6.30 | < 6.00 | > 6.60 |
| COc1cc2c(Sc3cccc(NC(=O)Nc4cc(C(C)(C)C)on4)c3)ncnc2cc1OCCCN1CCN(S(C)(=O)=O)CC1 [Ex 77, 1-(5-tert-butylisoxazol-3-yl)-3-(3-(6-methoxy-7-(3-(4-(methylsulfonyl)piperazin-1-yl)propoxy)quinazolin-4-ylthio)phenyl)urea] | 6.00 to 6.30 | 6.00 to 6.30 | 6.30 to 6.60 | > 6.60 |
| COc1cc2c(Sc3cccc(NC(=O)Nc4cc(C(C)(C)C)on4)c3)ncnc2cc1OCCN1CCOCC1 [Ex 79, 1-(5-tert-butylisoxazol-3-yl)-3-(3-(6-methoxy-7-(2-morpholinoethoxy)quinazolin-4-ylthio)phenyl)urea] | 6.00 to 6.30 | 6.00 to 6.30 | < 6.00 | > 6.60 |
| COc1cc2c(Sc3cccc(NC(=O)Nc4cc(C(C)(C)C)on4)c3)ncnc2cc1OCCN1CCCCC1 [Ex 80, 1-(5-tert-butylisoxazol-3-yl)-3-(3-(6-methoxy-7-(2-(piperidin-1-yl)ethoxy)quinazolin-4-ylthio)phenyl)urea] | 6.30 to 6.60 | 6.30 to 6.60 | < 6.00 | 6.30 to 6.60 |
| COc1cc2c(Sc3cccc(NC(=O)Nc4cc(C(C)(C)C)on4)c3)ncnc2cc1OCCN1CCN(S(C)(=O)=O)CC1 [Ex 81, 1-(5-tert-butylisoxazol-3-yl)-3-(3-(6-methoxy-7-(2-(4-(methylsulfonyl)piperazin-1-yl)ethoxy)quinazolin-4-ylthio)phenyl)urea] | 6.00 to 6.30 | 6.00 to 6.30 | 6.30 to 6.60 | > 6.60 |
| COc1cc2c(Sc3cccc(NC(=O)Nc4cc(C(C)(C)C)on4)c3)ncnc2cc1OCCN1CCN(C)CC1 [Ex 83, 1-(5-tert-butylisoxazol-3-yl)-3-(3-(6-methoxy-7-(2-(4-methylpiperazin-1-yl)ethoxy)quinazolin-4-ylthio)phenyl)urea] | 6.30 to 6.60 | 6.30 to 6.60 | < 6.00 | > 6.60 |
| CC(C)(C)c1cc(NC(=O)Nc2cccc(Sc3ncnc4ccc(OCCCN5CCS(=O)(=O)CC5)cc34)c2)no1 [Ex 90, 1-(5-tert-butyl-isoxazol-3-yl)-3-(3-{6-[3-(1,1-dioxo-thiomorpholin-4-yl)-propoxy]-quinazolin-4-ylsulfanyl}-phenyl)-urea] | 6.00 to 6.30 | 6.30 to 6.60 | < 6.00 | > 6.60 |
| COc1cc2ncnc(Oc3cccc(NC(=O)Nc4cc(C(C)(C)C)on4)c3)c2cc1OCCN1CCS(=O)(=O)CC1 [Ex 91, 1-(5-tert-butyl-isoxazol-3-yl)-3-(3-{6-[2-(1,1-dioxo-thiomorpholin-4-yl)-ethoxy]-7-methoxy-quinazolin-4-yloxy}-phenyl)-urea] | 6.30 to 6.60 | 6.30 to 6.60 | > 6.60 | > 6.60 |
| CC(C)(C)c1cc(NC(=O)Nc2cccc(Oc3ncnc4ccc(-c5ccc(CNCCS(C)(=O)=O)o5)cc34)c2)no1 [Ex 92, 1-(5-tert-butylisoxazol-3-yl)-3-{3-[6-(5-{[2-(methylsulfonyl)ethylamino]methyl}furan-2-yl)quinazolin-4-yloxy]phenyl}urea] | 6.00 to 6.30 | 6.30 to 6.60 | > 6.60 | > 6.60 |
| COc1cc2c(Oc3cccc(NC(=O)Nc4cc(C(C)(C)C)on4)c3)ncnc2cc1O [Ex 95, 1-(5-tert-butylisoxazol-3-yl)-3-(3-(7-hydroxy-6-methoxyquinazolin-4-yloxy)phenyl)urea] | 6.00 to 6.30 | 6.30 to 6.60 | > 6.60 | > 6.60 |
| COc1cc2c(Oc3cccc(NC(=O)Nc4cc(C(C)(C)C)on4)c3)ncnc2cc1O[C@H]1CCN(C)C1 [Ex 97, (S)-1-(5-tert-butylisoxazol-3-yl)-3-(3-(6-methoxy-7-(1-methylpyrrolidin-3-yloxy)quinazolin-4-yloxy)phenyl)urea mono acetate] | 6.30 to 6.60 | 6.00 to 6.30 | < 6.00 | 6.30 to 6.60 |
| COc1cc2c(Oc3cccc(NC(=O)Nc4cc(C(C)(C)C)on4)c3)ncnc2cc1O[C@@H]1CCN(C)C1 [Ex 99, (R)-1-(5-tert-butylisoxazol-3-yl)-3-(3-(6-methoxy-7-(1-methylpyrrolidin-3-yloxy)quinazolin-4-yloxy)phenyl)urea mono acetate] | 6.30 to 6.60 | 6.30 to 6.60 | < 6.00 | 6.30 to 6.60 |
